Measured values from patent US7700592B2, “α2C adrenoreceptor agonists” (Schering Corporation, priority 2005, dated 2010).

Biological target: T1, α2C receptor (Homo sapiens, UniProt P18825)
T1 sequence (P18825 1-462): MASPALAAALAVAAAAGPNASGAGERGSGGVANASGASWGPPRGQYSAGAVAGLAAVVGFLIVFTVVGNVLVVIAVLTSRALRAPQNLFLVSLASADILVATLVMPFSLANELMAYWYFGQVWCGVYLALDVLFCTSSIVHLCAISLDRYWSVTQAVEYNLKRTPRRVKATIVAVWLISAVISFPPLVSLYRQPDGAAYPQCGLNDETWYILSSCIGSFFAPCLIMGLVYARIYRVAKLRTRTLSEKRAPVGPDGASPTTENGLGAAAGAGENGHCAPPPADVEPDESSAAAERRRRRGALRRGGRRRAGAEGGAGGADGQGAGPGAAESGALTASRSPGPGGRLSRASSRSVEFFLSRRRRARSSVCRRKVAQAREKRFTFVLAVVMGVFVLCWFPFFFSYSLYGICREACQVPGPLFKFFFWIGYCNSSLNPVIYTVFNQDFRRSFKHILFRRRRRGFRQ
Assay: GTPγS assay, efficacy agonist activity (Emax) for α2C
Assay type: biochemical
Conditions: active agonist = efficacy at α2C ≧30% Emax; functionally selective = additionally efficacy at α2A ≦30% Emax (GTPγS assay)
Source text: For the purposes of this present invention, a compound is defined to be an active agonist of the α2C receptor subtype if the compound's efficacy at the α2C receptor is ≧30% Emax (GTPγS assay). A compound is a functionally selective agonist of the α2C receptor subtype over the α2A receptor subtype if the compound's efficacy at the α2C receptor is ≧30% Emax (GTPγS assay) and its efficacy at the α2A receptor is ≦30% Emax (GTPγS assay).
Efficacy agonist activity values (Emax, GTPγS assay) for α2C were determined by following the general procedure detailed by Umland et al (“Receptor reserve analysis of the human α2c-adrenoceptor using [^35S]GTPγS and cAMP functional assays” European Journal of Pharmacology 2001, 411, 211-221). For the purposes of the present invention, a compound is defined to be an active agonist of the α2C receptor subtype if the compound's efficacy at the α2C receptor is ≧30% Emax (GTPγS assay). A compound is a functionally selective agonist of the α2C receptor subtype over the α2A receptor subtype if the compound's efficacy at the α2C receptor is […] Emax (GTPγS assay) and its efficacy at the α2A receptor is ≦30% Emax (GTPγS assay).

Compound	Efficacy agonist activity (Emax, GTPγS assay) for α2C: evaluated as active or functionally selective agonist
c1ccc2c(c1)NCCN2Cc1c[nH]cn1 [Compound 26A]	active or functionally selective agonists of the α2C receptor subtype
CCN(C(=O)OCc1cc(C)on1)c1ccc2c(c1)N(Cc1c[nH]cn1)CCO2 [Compound 278]	active or functionally selective agonists of the α2C receptor subtype
CCCOC(=O)Nc1ccc2c(c1)N(Cc1c[nH]cn1)CCO2 [Compound 271]	active or functionally selective agonists of the α2C receptor subtype
O=[N+]([O-])c1ccc2c(c1)N(Cc1c[nH]cn1)CCO2 [Compound 3D]	active or functionally selective agonists of the α2C receptor subtype
COCCOC(=O)N(C)c1ccc2c(n1)N(Cc1c[nH]cn1)CCO2 [Compound 231]	active or functionally selective agonists of the α2C receptor subtype
N=C(N)c1ccc2c(c1)N(Cc1c[nH]cn1)CCO2 [Compound 13]	active or functionally selective agonists of the α2C receptor subtype
O=C(Nc1ccc2c(c1)N(Cc1c[nH]cn1)CCO2)OCCOc1ccccc1 [Compound 304]	active or functionally selective agonists of the α2C receptor subtype
O=CNc1cc(F)c2c(c1)N(Cc1c[nH]cn1)CCO2 [Compound 132]	active or functionally selective agonists of the α2C receptor subtype
COC(=O)N(C)c1cc(C)c2c(c1)N(Cc1c[nH]cn1)CCO2 [Compound 240]	active or functionally selective agonists of the α2C receptor subtype
CCN(C(=O)OCc1ccnc(N)c1)c1ccc2c(c1)N(Cc1c[nH]cn1)CCO2 [Compound 63]	active or functionally selective agonists of the α2C receptor subtype
CCCCCCOC(=O)N(C)c1ccc2c(c1)N(Cc1c[nH]cn1)CCO2 [Compound 263]	active or functionally selective agonists of the α2C receptor subtype
Fc1cc(Br)cc2c1OCCN2Cc1c[nH]cn1 [Compound 124]	active or functionally selective agonists of the α2C receptor subtype
CCN(C(=O)NOC)c1ccc2c(c1)N(Cc1c[nH]cn1)CCO2 [Compound 244]	active or functionally selective agonists of the α2C receptor subtype
CCN(C(=O)C#CC1CC1)c1ccc2c(c1)N(Cc1c[nH]cn1)CCO2 [Compound 251]	active or functionally selective agonists of the α2C receptor subtype
CCN(C(=O)OCc1cn2ccsc2n1)c1ccc2c(c1)N(Cc1c[nH]cn1)CCO2 [Compound 289]	active or functionally selective agonists of the α2C receptor subtype
CN(C)S(=O)(=O)Nc1ccc2c(c1)N(Cc1c[nH]cn1)CCS2 [Compound 142]	active or functionally selective agonists of the α2C receptor subtype
COC(=O)Nc1ccc2c(c1)N(Cc1c[nH]cn1)CCCO2 [Compound 28]	active or functionally selective agonists of the α2C receptor subtype
COC(=O)Nc1cc(Cl)c2c(c1)N(Cc1c[nH]cn1)CCO2 [Compound 20]	active or functionally selective agonists of the α2C receptor subtype
c1ccc2c(c1)OCCN2Cc1c[nH]cn1 [Compound 1]	active or functionally selective agonists of the α2C receptor subtype
CS(=O)(=O)c1ccc2c(c1)N(Cc1c[nH]cn1)CCO2 [Compound 14]	active or functionally selective agonists of the α2C receptor subtype
O=[N+]([O-])c1ccc2c(c1)N(CCc1c[nH]cn1)CCO2 [Compound 37]	active or functionally selective agonists of the α2C receptor subtype

Compound	Efficacy agonist activity (Emax, GTPγS assay) for α2C: evaluated as active or functionally selective agonist
c1ccc2c(c1)SCCN2Cc1c[nH]cn1 [Compound 25B]	active or functionally selective agonists of the α2C receptor subtype
COC(=O)Nc1ccc2c(c1)N(Cc1c[nH]cn1)CCS2 [Compound 24]	active or functionally selective agonists of the α2C receptor subtype
CCN(C(=O)OCc1cnc(N)nc1)c1ccc2c(c1)N(Cc1c[nH]cn1)CCO2 [Compound 281]	active or functionally selective agonists of the α2C receptor subtype
CCNC(=O)N(CC)c1ccc2c(c1)N(Cc1c[nH]cn1)CCO2 [Compound 245]	active or functionally selective agonists of the α2C receptor subtype
Cc1cc(COC(=O)Nc2ccc3c(c2)N(Cc2c[nH]cn2)CCO3)n(C)n1 [Compound 340]	active or functionally selective agonists of the α2C receptor subtype
CCN(C(=O)CCCc1ccccc1)c1ccc2c(c1)N(Cc1c[nH]cn1)CCO2 [Compound 167]	active or functionally selective agonists of the α2C receptor subtype
CNC(=O)N(C)c1cc(C)c2c(c1)N(Cc1c[nH]cn1)CCO2 [Compound 239]	active or functionally selective agonists of the α2C receptor subtype
CCN(C(=O)OCc1ccncc1)c1ccc2c(c1)N(Cc1c[nH]cn1)CCO2 [Compound 276]	active or functionally selective agonists of the α2C receptor subtype
COC(=O)Nc1ccc2c(c1)N(CCc1c[nH]cn1)CCO2 [Compound 139]	active or functionally selective agonists of the α2C receptor subtype
C=CCS(=O)(=O)Nc1ccc2c(c1)N(Cc1c[nH]cn1)CCO2 [Compound 266]	active or functionally selective agonists of the α2C receptor subtype
COc1ccc(-c2ccc3c(c2)N(Cc2c[nH]cn2)CCO3)cn1 [Compound 148]	active or functionally selective agonists of the α2C receptor subtype
CCCOC(=O)N(C)c1ccc2c(c1)N(Cc1c[nH]cn1)CCO2 [Compound 257]	active or functionally selective agonists of the α2C receptor subtype
CNC(=O)N(C)c1ccc2c(c1)N(Cc1c[nH]cn1)CCCO2 [Compound 223]	active or functionally selective agonists of the α2C receptor subtype
O=C(Nc1ccc2c(c1)N(Cc1c[nH]cn1)CCO2)OCc1nc2ccccc2s1 [Compound 312]	active or functionally selective agonists of the α2C receptor subtype
CNC(=O)N(C)c1cc(Cl)c2c(c1)N(Cc1c[nH]cn1)CCO2 [Compound 232]	active or functionally selective agonists of the α2C receptor subtype
COC(=O)Nc1cc2c(cc1F)OCCN2Cc1c[nH]cn1 [Compound 21]	active or functionally selective agonists of the α2C receptor subtype
CCN(C(=O)NCc1ccco1)c1ccc2c(c1)N(Cc1c[nH]cn1)CCO2 [Compound 274]	active or functionally selective agonists of the α2C receptor subtype
CNC(=O)N(C)c1cc(F)c2c(c1)N(Cc1c[nH]cn1)CCO2 [Compound 134]	active or functionally selective agonists of the α2C receptor subtype
N#Cc1ccc2c(c1)N(Cc1c[nH]cn1)CCO2 [Compound 12]	active or functionally selective agonists of the α2C receptor subtype
CCCCCCNC(=O)N(C)c1ccc2c(c1)N(Cc1c[nH]cn1)CCO2 [Compound 273]	active or functionally selective agonists of the α2C receptor subtype
